{"source": "patent US20240099304A1", "about": "“SYNERGISTIC HERBICIDAL COMPOSITIONS OF METAMIFOP” (Parijat Industries (India) Private Limited, priority 2021, published 2024)", "format_in_all_cases": "in vivo", "key": {"Cyanotis axillaris": {"tested_on": "Cyanotis axillaris", "assay": "Field efficacy on broad leaf weed in soybean, post-emergence foliar application", "procedure": "(§1) As described in the Herbicide Handbook of the Weed Science Society of America, Ninth Edition, 2007, p. 429, “synergism” [is] an interaction of two or more factors such that the effect when combined is greater than the predicted effect based on the response to each factor applied separately. In the Colby method, the expected (or predicted) response of a combination of herbicides is calculated by taking the product of the observed response for each individual component of the combination when applied alone divided by 100 and subtracting this value from the sum of the observed response for each component while applied alone. An unexpected enhancement in efficacy of the combination is then determined by comparing the observed response of the combination to the expected (or predicted) response as calculated from the observed response of each individual component alone. If the observed response of the combination is greater than the expected (or predicted) response, or stated conversely, if the difference between the observed and expected response is greater than zero, then the combination is said to be synergistic or unexpectedly effective. (Colby, S. R., Weeds, 1967(15), p. 20-22). The Colby method required only a single dose of each herbicide applied alone and the mixture of both doses.\n(§2) Synergy Study: The following formula was used to calculate the expected activity of mixtures containing active ingredients, A and B:\n(§3) • A=Observed efficacy of active ingredient (combination of Metamifop and Imidazolinone herbicides) A at the same concentration as used in the mixture. • B=observed efficacy of active ingredient B at the same concentration as used in the mixture. However, following formula was used to calculate the expected activity of mixtures containing three active ingredients, A, B and C:\n(§4) • A=observed efficacy of active ingredient (combination of Metamifop and Imidazolinone herbicides) A at the same concentration as used in the mixture. • B=observed efficacy of active ingredient B at the same concentration as used in the mixture. • C=observed efficacy of active ingredient C at the same concentration as used in the mixture.\n(§5) EFFICACY STUDY: The field experiments were carried out to test the synergy of the combination Metamifop, Imazethapyr, and Imazamox in India at various locations like in MP, Maharashtra, Karnataka, and Telangana on farmer's field against soybean weeds during Kharif season. The experiment comprising of 15 treatments including premixed binary and ternary combinations along with their stand-alone molecule using a randomized block design replicated thrice. All the treatments were applied as post-emergence foliar application when the weeds reached to two to four leaf stage. The spray was conducted with the help of Battery-operated Knapsack sprayer. The percentage efficacy was calculated after 14 and 21 days after application of herbicides.\n(§6) The weeds present in the experimental fields were echinochloa conola, echinochloa crusgalli, brachiaria euriciformis, rottboellia cochinchinensis, cynodon dactylon, parthenium hyterophorus, digera arvensis, cynotis axillaris, acalypha indica, Commelina benghalensis, celosia argentia, cyperus spp."}, "Commelina benghalensis": {"tested_on": "Commelina benghalensis", "assay": "Field efficacy on broad leaf weed in soybean, post-emergence foliar application", "procedure": "as §1, §2, §3, §4, §5, §6"}, "Parthenium hysterophorus": {"tested_on": "Parthenium hysterophorus", "assay": "Field efficacy on broad leaf weed in soybean, post-emergence foliar application", "procedure": "as §1, §2, §3, §4, §5, §6"}, "[1]": {"tested_on": "hard to kill broad leaf weeds", "assay": "Field efficacy, summary on broad leaf weeds", "procedure": "as §1, §5"}, "Echinochloa crusgalli": {"tested_on": "Echinochloa crusgalli", "assay": "Field efficacy on grass weed in soybean, post-emergence foliar application", "procedure": "as §1, §2, §3, §4, §5, §6"}, "Brachiaria eruciformis": {"tested_on": "Brachiaria eruciformis", "assay": "Field efficacy on grass weed in soybean, post-emergence foliar application", "procedure": "as §1, §2, §3, §4, §5, §6"}, "[2]": {"tested_on": "Rottboellia cochinchinensis", "assay": "Field efficacy on grass weed in soybean, post-emergence foliar application", "procedure": "as §1, §2, §3, §4, §5, §6"}, "Soybean": {"tested_on": "Soybean", "assay": "Phytotoxicity in Soybean, visual grading on 0-10 scale", "conditions": "Soybean", "procedure": "as §5\nPhytotoxic effect of herbicidal combination of Metamifop, Imazethapyr and Imazamox in soyabean: Table 5, 10 show the visual observations and grading on phytotoxicity which was recorded for leaf injury on tip/surface, Epinasty/Hyponasty, and wilting etc. on 0-10 scale (as below) at 1, 3, 7, 14 and 21 days after application of the present herbicidal composition."}}}
{"smiles": "C[C@@H](Oc1ccc(Oc2nc3ccc(Cl)cc3o2)cc1)C(=O)N(C)c1ccccc1F", "note": "[Metamifop]", "values": [{"measurement": "% Weed control burn down symptoms generation Observed", "setting": "Cyanotis axillaris; 14 DAA, Metamifop 80 gm ai/ha", "value": 0, "unit": "%"}, {"measurement": "% Weed control burn down symptoms generation Observed", "setting": "Cyanotis axillaris; 14 DAA, Metamifop 90 gm ai/ha", "value": 0, "unit": "%"}, {"measurement": "% Weed control burn down symptoms generation Observed", "setting": "Cyanotis axillaris; 21 DAA, Metamifop 80 gm ai/ha", "value": 0, "unit": "%"}, {"measurement": "% Weed control burn down symptoms generation Observed", "setting": "Cyanotis axillaris; 21 DAA, Metamifop 90 gm ai/ha", "value": 0, "unit": "%"}, {"measurement": "% Weed control burn down symptoms generation Observed", "setting": "Commelina benghalensis; 14 DAA, Metamifop 80 gm ai/ha", "value": 0, "unit": "%"}, {"measurement": "% Weed control burn down symptoms generation Observed", "setting": "Commelina benghalensis; 14 DAA, Metamifop 90 gm ai/ha", "value": 0, "unit": "%"}, {"measurement": "% Weed control burn down symptoms generation Observed", "setting": "Commelina benghalensis; 21 DAA, Metamifop 80 gm ai/ha", "value": 0, "unit": "%"}, {"measurement": "% Weed control burn down symptoms generation Observed", "setting": "Commelina benghalensis; 21 DAA, Metamifop 90 gm ai/ha", "value": 0, "unit": "%"}, {"measurement": "% Weed control burn down symptoms generation Observed", "setting": "Parthenium hysterophorus; 14 DAA, Metamifop 80 gm ai/ha", "value": 0, "unit": "%"}, {"measurement": "% Weed control burn down symptoms generation Observed", "setting": "Parthenium hysterophorus; 14 DAA, Metamifop 90 gm ai/ha", "value": 0, "unit": "%"}, {"measurement": "% Weed control burn down symptoms generation Observed", "setting": "Parthenium hysterophorus; 21 DAA, Metamifop 80 gm ai/ha", "value": 0, "unit": "%"}, {"measurement": "% Weed control burn down symptoms generation Observed", "setting": "Parthenium hysterophorus; 21 DAA, Metamifop 90 gm ai/ha", "value": 0, "unit": "%"}, {"measurement": "Control on targeted weeds, applied alone", "setting": "[1]; at 14 days", "value": "no or very less control"}, {"measurement": "Control on targeted weeds, applied alone", "setting": "[1]; at 21 days", "value": "no or very less control"}, {"measurement": "% Weed control burn down symptoms generation Observed", "setting": "Echinochloa crusgalli; 14 DAA, Metamifop 80 gm ai/ha", "value": 80, "unit": "%"}, {"measurement": "% Weed control burn down symptoms generation Observed", "setting": "Echinochloa crusgalli; 14 DAA, Metamifop 90 gm ai/ha", "value": 83, "unit": "%"}, {"measurement": "% Weed control burn down symptoms generation Observed", "setting": "Echinochloa crusgalli; 21 DAA, Metamifop 80 gm ai/ha", "value": 74, "unit": "%"}, {"measurement": "% Weed control burn down symptoms generation Observed", "setting": "Echinochloa crusgalli; 21 DAA, Metamifop 90 gm ai/ha", "value": 77, "unit": "%"}, {"measurement": "% Weed control burn down symptoms generation Observed", "setting": "Brachiaria eruciformis; 14 DAA, Metamifop 80 gm ai/ha", "value": 84, "unit": "%"}, {"measurement": "% Weed control burn down symptoms generation Observed", "setting": "Brachiaria eruciformis; 14 DAA, Metamifop 90 gm ai/ha", "value": 88, "unit": "%"}, {"measurement": "% Weed control burn down symptoms generation Observed", "setting": "Brachiaria eruciformis; 21 DAA, Metamifop 80 gm ai/ha", "value": 78, "unit": "%"}, {"measurement": "% Weed control burn down symptoms generation Observed", "setting": "Brachiaria eruciformis; 21 DAA, Metamifop 90 gm ai/ha", "value": 81, "unit": "%"}, {"measurement": "% Weed control burn down symptoms generation Observed", "setting": "[2]; 14 DAA, Metamifop 80 gm ai/ha", "value": 67, "unit": "%"}, {"measurement": "% Weed control burn down symptoms generation Observed", "setting": "[2]; 14 DAA, Metamifop 90 gm ai/ha", "value": 70, "unit": "%"}, {"measurement": "% Weed control burn down symptoms generation Observed", "setting": "[2]; 21 DAA, Metamifop 80 gm ai/ha", "value": 70, "unit": "%"}, {"measurement": "% Weed control burn down symptoms generation Observed", "setting": "[2]; 21 DAA, Metamifop 90 gm ai/ha", "value": 72, "unit": "%"}, {"measurement": "Phytotoxicity score", "setting": "Soybean; 1 DAA, Metamifop 80 gm ai/ha", "value": 0}, {"measurement": "Phytotoxicity score", "setting": "Soybean; 1 DAA, Metamifop 90 gm ai/ha", "value": 0}, {"measurement": "Phytotoxicity score", "setting": "Soybean; 3 DAA, Metamifop 80 gm ai/ha", "value": 0}, {"measurement": "Phytotoxicity score", "setting": "Soybean; 3 DAA, Metamifop 90 gm ai/ha", "value": 0}, {"measurement": "Phytotoxicity score", "setting": "Soybean; 7 DAA, Metamifop 80 gm ai/ha", "value": 0}, {"measurement": "Phytotoxicity score", "setting": "Soybean; 7 DAA, Metamifop 90 gm ai/ha", "value": 0}, {"measurement": "Phytotoxicity score", "setting": "Soybean; 14 DAA, Metamifop 80 gm ai/ha", "value": 0}, {"measurement": "Phytotoxicity score", "setting": "Soybean; 14 DAA, Metamifop 90 gm ai/ha", "value": 0}, {"measurement": "Phytotoxicity score", "setting": "Soybean; 21 DAA, Metamifop 80 gm ai/ha", "value": 0}, {"measurement": "Phytotoxicity score", "setting": "Soybean; 21 DAA, Metamifop 90 gm ai/ha", "value": 0}]}
